Experimental data from patent publication EP0680950B1, “PROPENONE DERIVATIVES” (KYOWA HAKKO KOGYO CO., LTD., priority 1993, dated 1995).

What follows are molecules tested on HeLa S3 cells (assay: HeLa S3 Cell Growth Inhibition Test). Conditions: Homo sapiens, 72 hours culture with compound, neutral red staining.
Type: cell-based
Procedure: Each 0.1 ml of HeLa S3 cells which had been prepared to 3 x 10^4 cells/ml using a medium consisted of MEM medium, 10 % fetal bovine serum and 2 mM glutamine was distributed in each well of 96 well-microtiter plate. HeLa S3 was cultured at 37°C in a CO2 incubator for one night, each 0.05 ml of test compounds which had been appropriately diluted with the culture solution was added thereto and the mixture was cultured at 37°C for 72 hours in a CO2 incubator. Supernatant was removed, each 0.1 ml of the culture solution containing 0.02 % neutral red was added to the residue, the mixture was incubated at 37°C for one hour in a CO2 incubator and the cells were stained. Supernatant was removed and the residue was washed once with physiological saline. Then, the pigment was extracted with 0.001 N hydrochloric acid/30 % ethanol and the absorbance at 550 nm was measured by a microplatereader. A concentration of the test compound (IC50) at which the growth of cell is inhibited by 50 % was calculated by comparing the absorbance of non-treated cells and that of cells treated with a predetermined concentration of the test compound.

**Q.** For `COc1cc(C(=O)/C=C/c2c[nH]c3ccccc23)cc(OC)c1OC` [Compound 1, (E)-3-(Indol-3-yl)-1-(3,4,5-trimethoxyphenyl)-2-propen-1-one], which IC50 is on record?
**A.** Its IC50 is 10 nM.

**Q.** With `COc1cc(C(=O)/C=C/c2cn(C)c3ccccc23)cc(OC)c1OC` [Compound 2, (E)-3-(1-Methylindol-3-yl)-1-(3,4,5-trimethoxyphenyl)-2-propen-1-one] as the molecule, how does the IC50 read?
**A.** Its IC50 is 20 nM.

**Q.** How did the IC50 turn out when `CCn1cc(/C=C/C(=O)c2cc(OC)c(OC)c(OC)c2)c2ccccc21` [Compound 3, (E)-3-(1-Ethylindol-3-yl)-1-(3,4,5-trimethoxyphenyl)-2-propen-1-one] was run?
**A.** The IC50 was 58 nM.

**Q.** How did the IC50 turn out when `COc1cc(C(=O)/C=C/c2cn(C(C)=O)c3ccccc23)cc(OC)c1OC` [Compound 6, (E)-3-(1-Acetylindol-3-yl)-1-(3,4,5-trimethoxyphenyl)-2-propen-1-one] was run?
**A.** Its IC50 is 17 nM.

**Q.** How did the IC50 turn out when `COc1cc(C(=O)/C=C/c2cn(C(=O)c3ccccc3)c3ccccc23)cc(OC)c1OC` [Compound 8, (E)-3-(1-Benzoylindol-3-yl)-1-(3,4,5-trimethoxyphenyl)-2-propen-1-one] was run?
**A.** Its IC50 is 26 nM.

**Q.** With `COc1cc(C(=O)/C=C/c2c(C)[nH]c3ccccc23)cc(OC)c1OC` [Compound 12, (E)-3-(2-Methylindol-3-yl)-1-(3,4,5-trimethoxyphenyl)-2-propen-1-one] as the molecule, how does the IC50 read?
**A.** Its IC50 is 260 nM.

**Q.** `COc1cc(C(=O)/C=C/c2c(Cl)n(C)c3ccccc23)cc(OC)c1OC` [Compound 13, (E)-3-(2-Chloro-1-methylindol-3-yl)-1-(3,4,5-trimethoxyphenyl)-2-propen-1-one] was tested. Which IC50 did it give?
**A.** The IC50 was 78 nM.

**Q.** For `COc1cc(C(=O)/C=C/c2c[nH]c3cccc(C)c23)cc(OC)c1OC` [Compound 15, (E)-3-(4-Methylindol-3-yl)-1-(3,4,5-trimethoxyphenyl)-2-propen-1-one], which IC50 is on record?
**A.** The IC50 was 86 nM.

**Q.** How did the IC50 turn out when `COc1cc(C(=O)/C=C/c2c[nH]c3ccc(C)cc23)cc(OC)c1OC` [Compound 20, (E)-3-(5-Methylindol-3-yl)-1-(3,4,5-trimethoxyphenyl)-2-propen-1-one] was run?
**A.** The IC50 was 110 nM.

**Q.** With `COc1cc(C(=O)/C=C/c2c[nH]c3ccc(F)cc23)cc(OC)c1OC` [Compound 29, (E)-3-(5-Fluoroindol-3-yl)-1-(3,4,5-trimethoxyphenyl)-2-propen-1-one] as the molecule, how does the IC50 read?
**A.** Its IC50 is 60 nM.

**Q.** For `COc1cc(C(=O)/C=C/c2c[nH]c3cc(C)ccc23)cc(OC)c1OC` [Compound 32, (E)-3-(6-Methylindol-3-yl)-1-(3,4,5-trimethoxyphenyl)-2-propen-1-one], which IC50 is on record?
**A.** The IC50 was 6.3 nM.

**Q.** `COc1cc(C(=O)/C=C/c2cn(C)c3cc(NC(C)=O)ccc23)cc(OC)c1OC` [Compound 38, (E)-3-(6-Acetamido-1-methylindol-3-yl)-1-(3,4,5-trimethoxyphenyl)-2-propen-1-one] was tested. Which IC50 did it give?
**A.** The IC50 was 55 nM.

**Q.** For `COc1cc(C(=O)/C=C/c2c[nH]c3c(OC)c(OC)ccc23)cc(OC)c1OC` [Compound 40, (E)-3-(6,7-Dimethoxyindol-3-yl)-1-(3,4,5-trimethoxyphenyl)-2-propen-1-one], which IC50 is on record?
**A.** The IC50 was 12 nM.

**Q.** `COc1cc(C(=O)/C=C/c2c[nH]c3c(OC)cccc23)cc(OC)c1OC` [Compound 46, (E)-3-(7-Methoxyindol-3-yl)-1-(3,4,5-trimethoxyphenyl)-2-propen-1-one] was tested. Which IC50 did it give?
**A.** The IC50 was 200 nM.

**Q.** For `COc1cc(C(=O)/C(C)=C/c2c[nH]c3ccccc23)cc(OC)c1OC` [Compound 48, (E)-3-(Indol-3-yl)-2-methyl-1-(3,4,5-trimethoxyphenyl)-2-propen-1-one], which IC50 is on record?
**A.** Its IC50 is 0.29 nM.

**Q.** How did the IC50 turn out when `CCC/C(=C\c1c[nH]c2ccccc12)C(=O)c1cc(OC)c(OC)c(OC)c1` [Compound 49, (E)-3-(Indol-3-yl)-2-propyl-1-(3,4,5-trimethoxyphenyl)-2-propen-1-one] was run?
**A.** The IC50 was 6 nM.

**Q.** With `COc1cc(C(=O)/C=C/c2cn(C(=O)c3ccc(C)cc3)c3ccccc23)cc(OC)c1OC` [Compound 50, (E)-3-[1-(4-Methylbenzoyl)indol-3-yl]-1-(3,4,5-trimethoxyphenyl)-2-propen-1-one] as the molecule, how does the IC50 read?
**A.** Its IC50 is 25 nM.

**Q.** `COc1ccc(C(=O)n2cc(/C=C/C(=O)c3cc(OC)c(OC)c(OC)c3)c3ccccc32)cc1` [Compound 51, (E)--3-[1-(4-Methoxybenzoyl)indol-3-yl]-1-(3,4,5-trimethoxyphenyl)-2-propen-1-one] was tested. Which IC50 did it give?
**A.** The IC50 was 23 nM.

**Q.** Which IC50 does the source give for `COc1cc(C(=O)/C=C/c2cn(C(=O)c3cccc(C)c3)c3ccccc23)cc(OC)c1OC` [Compound 52, (E)-3-[1-(3-Methylbenzoyl)indol-3-yl]-1-(3,4,5-trimethoxyphenyl)-2-propen-1-one] here?
**A.** The IC50 was 58 nM.

**Q.** Which IC50 does the source give for `COc1cccc(C(=O)n2cc(/C=C/C(=O)c3cc(OC)c(OC)c(OC)c3)c3ccccc32)c1` [Compound 53, (E)-3-[1-(3-Methoxybenzoyl)indol-3-yl]-1-(3,4,5-trimethoxyphenyl)-2-propen-1-one] here?
**A.** The IC50 was 34 nM.

**Q.** For `COc1cc(C(=O)/C=C/c2cn(C(=O)c3ccc(NC(C)=O)cc3)c3ccccc23)cc(OC)c1OC` [Compound 56, (E)-3-[1-(4-Acetamidobenzoyl)indol-3-yl]-1-(3,4,5-trimethoxyphenyl)-2-propen-1-one], which IC50 is on record?
**A.** The IC50 was 23 nM.

**Q.** With `COc1cc(C(=O)/C=C/c2cn(C(=O)c3ccc(N(C)C)cc3)c3ccccc23)cc(OC)c1OC` [Compound 57, (E)-3-[1-(4-Dimethylaminobenzoyl)indol-3-yl]-1-(3,4,5-trimethoxyphenyl)-2-propen-1-one] as the molecule, how does the IC50 read?
**A.** Its IC50 is 31 nM.

**Q.** How did the IC50 turn out when `COc1ccc(C(=O)n2cc(/C=C/C(=O)c3cc(OC)c(OC)c(OC)c3)c3ccccc32)cc1OC` [Compound 58, (E)-3-[1-(3,4-Dimethoxybenzoyl)indol-3-yl]-1-(3,4,5-trimethoxyphenyl)-2-propen-1-one] was run?
**A.** Its IC50 is 64 nM.

**Q.** Which IC50 does the source give for `COc1cc(C(=O)/C=C/c2cn(C(=O)c3cc(OC)c(OC)c(OC)c3)c3ccccc23)cc(OC)c1OC` [Compound 59, (E)-3-[1-(3,4,5-Trimethoxybenzoyl)indol-3-yl]-1-(3,4,5-trimethoxyphenyl)-2-propen-1-one] here?
**A.** Its IC50 is 28 nM.

**Q.** Which IC50 does the source give for `COc1cc(C(=O)/C=C/c2cn(C(=O)c3cccnc3)c3ccccc23)cc(OC)c1OC` [Compound 60, (E)-3-(1-Nicotinoylindol-3-yl)-1-(3,4,5-trimethoxyphenyl)-2-propen-1-one] here?
**A.** Its IC50 is 7.7 nM.

**Q.** How did the IC50 turn out when `COc1cc(C(=O)/C=C/c2cn(C(=O)c3ccncc3)c3ccccc23)cc(OC)c1OC` [Compound 61, (E)-3-(1-Isonicotinoylindol-3-yl)-1-(3,4,5-trimethoxyphenyl)-2-propen-1-one] was run?
**A.** Its IC50 is 9.7 nM.

**Q.** Which IC50 does the source give for `CC/C(=C\c1c[nH]c2ccccc12)C(=O)c1cc(OC)c(OC)c(OC)c1` [Compound 62, (E)-2-Ethyl-3-(indol-3-yl)-1-(3,4,5-trimethoxyphenyl)-2-propen-1-one] here?
**A.** The IC50 was 4.7 nM.

**Q.** `COc1cc(C(=O)/C(C)=C/c2c[nH]c3cc(C)ccc23)cc(OC)c1OC` [Compound 63, (E)-2-Methyl-3-(6-methylindol-3-yl)-1-(3,4,5-trimethoxyphenyl)-2-propen-1-one] was tested. Which IC50 did it give?
**A.** The IC50 was 0.73 nM.

**Q.** With `COc1cc(C(=O)C(=Cc2c[nH]c3ccccc23)c2ccccc2)cc(OC)c1OC` [Compound 64, 3-(Indol-3-yl)-2-phenyl-1-(3,4,5-trimethoxyphenyl)-2-propen-1-one] as the molecule, how does the IC50 read?
**A.** The IC50 was 2.3 nM.

**Q.** `CCCC/C(=C\c1c[nH]c2ccccc12)C(=O)c1cc(OC)c(OC)c(OC)c1` [Compound 65, (E)-2-Butyl-3-(indol-3-yl)-1-(3,4,5-trimethoxyphenyl)-2-propen-1-one] was tested. Which IC50 did it give?
**A.** The IC50 was 6.3 nM.

**Q.** `CCc1ccc2c(/C=C(\C)C(=O)c3cc(OC)c(OC)c(OC)c3)c[nH]c2c1` [Compound 66, (E)-3-(6-Ethylindol-3-yl)-2-methyl-1-(3,4,5-trimethoxyphenyl)-2-propen-1-one] was tested. Which IC50 did it give?
**A.** Its IC50 is 2.5 nM.

**Q.** With `COc1cc(C(=O)/C=C/c2cn(C(=O)COCC(=O)O)c3ccccc23)cc(OC)c1OC` [Compound 67, (E)-3-(1-Diglycolylindol-3-yl)-1-(3,4,5-trimethoxyphenyl)-2-propen-1-one] as the molecule, how does the IC50 read?
**A.** Its IC50 is 11 nM.
